# Reference: PMC3156385 (Chemical research in toxicology, 2011)
# Assays:
# [1] = molecular target: T1, P450 1A1 (Homo sapiens, UniProt P04798); test: Inhibition of P450 1A1-dependent EROD activity; type: biochemical
# T1 sequence (P04798 1-512): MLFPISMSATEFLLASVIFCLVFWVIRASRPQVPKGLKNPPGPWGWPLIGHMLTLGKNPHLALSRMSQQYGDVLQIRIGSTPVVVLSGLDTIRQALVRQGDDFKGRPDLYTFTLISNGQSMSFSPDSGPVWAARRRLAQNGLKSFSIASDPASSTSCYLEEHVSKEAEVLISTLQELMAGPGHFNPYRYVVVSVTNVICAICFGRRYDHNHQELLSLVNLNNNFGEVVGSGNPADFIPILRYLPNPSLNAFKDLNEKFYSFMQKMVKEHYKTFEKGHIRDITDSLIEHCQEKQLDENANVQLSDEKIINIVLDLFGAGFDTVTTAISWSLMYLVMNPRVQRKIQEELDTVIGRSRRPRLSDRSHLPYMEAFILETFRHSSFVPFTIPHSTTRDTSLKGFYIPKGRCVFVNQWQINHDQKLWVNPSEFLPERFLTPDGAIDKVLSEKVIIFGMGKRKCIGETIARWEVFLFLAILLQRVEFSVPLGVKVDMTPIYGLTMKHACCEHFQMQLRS
# [2] = molecular target: T2, P450 1A2 (Homo sapiens, UniProt P05177); test: Inhibition of P450 1A2-dependent EROD activity; type: biochemical
# T2 sequence (P05177 1-516): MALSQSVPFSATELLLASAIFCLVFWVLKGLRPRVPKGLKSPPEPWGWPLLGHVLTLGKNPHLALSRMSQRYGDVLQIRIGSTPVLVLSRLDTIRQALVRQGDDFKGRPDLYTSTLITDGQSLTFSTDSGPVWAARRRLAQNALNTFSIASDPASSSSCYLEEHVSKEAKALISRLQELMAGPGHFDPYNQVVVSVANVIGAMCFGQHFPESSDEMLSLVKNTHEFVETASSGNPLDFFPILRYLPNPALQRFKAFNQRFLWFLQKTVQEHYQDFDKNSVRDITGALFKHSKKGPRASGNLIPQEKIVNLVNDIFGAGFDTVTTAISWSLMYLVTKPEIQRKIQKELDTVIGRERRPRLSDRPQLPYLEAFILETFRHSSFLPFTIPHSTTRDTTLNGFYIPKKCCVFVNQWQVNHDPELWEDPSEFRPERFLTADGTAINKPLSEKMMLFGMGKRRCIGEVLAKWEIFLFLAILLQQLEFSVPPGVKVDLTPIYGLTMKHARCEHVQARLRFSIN
# [3] = molecular target: T3, P450 1B1 (Homo sapiens, UniProt Q16678); test: Inhibition of P450 1B1-dependent EROD activity; type: biochemical
# T3 sequence (Q16678 1-543): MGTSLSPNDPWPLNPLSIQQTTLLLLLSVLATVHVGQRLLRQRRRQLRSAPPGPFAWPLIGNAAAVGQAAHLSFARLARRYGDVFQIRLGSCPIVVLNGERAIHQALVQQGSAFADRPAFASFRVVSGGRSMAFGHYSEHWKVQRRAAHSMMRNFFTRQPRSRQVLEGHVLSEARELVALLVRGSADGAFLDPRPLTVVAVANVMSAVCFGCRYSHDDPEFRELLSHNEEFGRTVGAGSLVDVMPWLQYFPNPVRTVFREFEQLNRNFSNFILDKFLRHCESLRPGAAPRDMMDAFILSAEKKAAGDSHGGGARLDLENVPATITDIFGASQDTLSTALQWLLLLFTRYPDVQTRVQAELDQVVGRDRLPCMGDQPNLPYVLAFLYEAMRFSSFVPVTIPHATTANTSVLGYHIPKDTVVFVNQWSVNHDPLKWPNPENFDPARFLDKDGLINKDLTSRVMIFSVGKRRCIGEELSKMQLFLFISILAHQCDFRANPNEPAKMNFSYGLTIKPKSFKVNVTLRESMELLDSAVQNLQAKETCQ
# [4] = molecular target: T4, P450 2A6 (Homo sapiens, UniProt P11509); test: Inhibition of P450 2A6-dependent coumarin 7-hydroxylation; type: biochemical
# T4 sequence (P11509 1-494): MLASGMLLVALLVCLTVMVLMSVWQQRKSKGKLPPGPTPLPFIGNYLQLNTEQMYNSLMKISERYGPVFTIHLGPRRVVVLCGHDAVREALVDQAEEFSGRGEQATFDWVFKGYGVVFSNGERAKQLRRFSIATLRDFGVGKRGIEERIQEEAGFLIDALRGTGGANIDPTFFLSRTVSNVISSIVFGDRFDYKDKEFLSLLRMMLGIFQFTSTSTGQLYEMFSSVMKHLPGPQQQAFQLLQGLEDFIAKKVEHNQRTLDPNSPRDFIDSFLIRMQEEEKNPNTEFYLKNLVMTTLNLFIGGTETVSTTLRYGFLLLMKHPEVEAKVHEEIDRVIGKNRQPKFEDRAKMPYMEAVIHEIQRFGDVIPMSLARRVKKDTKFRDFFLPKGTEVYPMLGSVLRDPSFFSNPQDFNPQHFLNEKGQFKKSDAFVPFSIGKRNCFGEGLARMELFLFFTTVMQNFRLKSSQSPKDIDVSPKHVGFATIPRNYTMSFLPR
# [5] = molecular target: T5, P450 2A13 (Homo sapiens, UniProt Q16696); test: Inhibition of P450 2A13-dependent coumarin 7-hydroxylation; type: biochemical
# T5 sequence (Q16696 1-494): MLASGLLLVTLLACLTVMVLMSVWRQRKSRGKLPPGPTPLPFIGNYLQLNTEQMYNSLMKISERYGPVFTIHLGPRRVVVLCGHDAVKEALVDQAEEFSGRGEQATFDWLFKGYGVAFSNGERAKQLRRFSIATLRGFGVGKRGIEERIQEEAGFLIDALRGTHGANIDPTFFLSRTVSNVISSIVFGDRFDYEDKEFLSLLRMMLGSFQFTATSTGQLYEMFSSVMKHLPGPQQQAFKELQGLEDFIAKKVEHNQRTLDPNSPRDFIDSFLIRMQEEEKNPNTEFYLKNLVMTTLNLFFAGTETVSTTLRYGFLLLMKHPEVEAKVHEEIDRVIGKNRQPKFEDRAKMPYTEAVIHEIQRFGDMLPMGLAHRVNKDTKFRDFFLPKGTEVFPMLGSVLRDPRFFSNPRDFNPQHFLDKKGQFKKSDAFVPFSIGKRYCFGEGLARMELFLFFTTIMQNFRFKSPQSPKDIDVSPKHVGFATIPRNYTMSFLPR
# [6] = molecular target: T1, P450 1A1; test: Spectral binding titration with purified recombinant P450 1A1; conditions: for ΔAmax/Ks / ΔAmax: Reverse Type I binding, 1 µM P450; for ΔAmax: means ± SE
# [7] = molecular target: T2, P450 1A2; test: Spectral binding titration with purified recombinant P450 1A2; conditions: for ΔAmax/Ks / ΔAmax: Reverse Type I binding, 1 µM P450; for ΔAmax: means ± SE
# [8] = molecular target: T3, P450 1B1; test: Spectral binding titration with purified recombinant P450 1B1; conditions: for ΔAmax/Ks / ΔAmax: Reverse Type I binding, 1 µM P450; for ΔAmax: means ± SE
# [9] = molecular target: T4, P450 2A6; test: Spectral binding titration with purified recombinant P450 2A6; conditions: for ΔAmax/Ks / ΔAmax: Type I binding, 1 µM P450; for ΔAmax: means ± SE
# [10] = molecular target: T5, P450 2A13; test: Spectral binding titration with purified recombinant P450 2A13; conditions: for ΔAmax/Ks / ΔAmax: Type I binding, 1 µM P450; for ΔAmax: means ± SE
# [11] = rats; cited from earlier work
structure (smiles),measurement,setting,value
"N#C[Se]Cc1ccccc1C[Se]C#N [o-XSC, 1,2-phenylenebis(methylene)selenocyanate]",IC50,[1],0.11 ± 0.021 µM
same,IC50,[2],0.39 ± 0.042 µM
same,IC50,[3],0.14 ± 0.027 µM
same,IC50,[4],2.7 ± 0.34 µM
same,IC50,[5],1.2 ± 0.13 µM
same,Kd,[6],26 ± 4.6 µM
same,ΔAmax/Ks,[6],0.77 × 10^−3
same,ΔAmax,[6],20 ± 1.2 × 10^−3
same,ΔAmax/Ks,[7],0.38 × 10^−3
same,ΔAmax,[7],2.4 ± 0.20 × 10^−3
same,Kd,[8],4.6 ± 0.75 µM
same,ΔAmax/Ks,[8],3.30 × 10^−3
same,ΔAmax,[8],15 ± 0.51 × 10^−3
same,Kd,[9],5.1 ± 0.45 µM
same,ΔAmax/Ks,[9],7.80 × 10^−3
same,ΔAmax,[9],40 ± 0.82 × 10^−3
same,Kd,[10],0.75 ± 0.044 µM
same,ΔAmax/Ks,[10],92.00 × 10^−3
same,ΔAmax,[10],69 ± 0.49 × 10^−3
"N#C[Se]Cc1ccc(C[Se]C#N)cc1 [p-XSC, 1,4-phenylenebis(methylene)selenocyanate]",IC50,[1],0.26 ± 0.031 µM
same,IC50,[2],0.63 ± 0.059 µM
same,IC50,[3],0.16 ± 0.009 µM
same,IC50,[4],6.2 ± 0.55 µM
same,IC50,[5],1.4 ± 0.21 µM
same,Kd,[6],19 ± 1.6 µM
same,ΔAmax/Ks,[6],0.45 × 10^−3
same,ΔAmax,[6],8.6 ± 0.24 × 10^−3
same,Kd,[7],12 ± 1.2 µM
same,ΔAmax/Ks,[7],0.81 × 10^−3
same,ΔAmax,[7],9.7 ± 0.40 × 10^−3
same,Kd,[8],3.6 ± 0.33 µM
same,ΔAmax/Ks,[8],5.83 × 10^−3
same,ΔAmax,[8],21 ± 0.48 × 10^−3
same,Kd,[9],14 ± 1.9 µM
same,ΔAmax/Ks,[9],2.20 × 10^−3
same,ΔAmax,[9],31 ± 1.2 × 10^−3
same,Kd,[10],1.5 ± 0.28 µM
same,ΔAmax/Ks,[10],46.00 × 10^−3
same,ΔAmax,[10],69 ± 2.6 × 10^−3
"N#C[Se]Cc1ccc(C[Se]C#N)cc1 [p-[^14C]XSC, 1,4-[^14C]phenylenebis(methylene)selenocyanate]",cumulative percentage of radioactivity excreted in feces,[11],75%
same,cumulative percentage of radioactivity excreted in urine,[11],24%
